Reference: patent US20260216229A1, “PROGRAMMABLE DNA PROTEOLYSIS TARGET CHIMERAS AND METHODS OF THEIR USE” (ARIZONA BOARD OF REGENTS ON BEHALF OF ARIZONA STATE …, priority 2023, published 2026)

Tests used:
Type in all cases: cell-based
CDK6 [1] = target: T1, CDK6 (Homo sapiens, UniProt Q00534); assay: Western blot of CDK6 degradation in U251 cells transfected with DNA-PROTACs
T1 construct: Western blot analysis of CDK6 degradation in U251 cells treated with distance-based DNA-PROTACs; endogenous in cells; host or cells: U-251 MG (U251) glioblastoma cells
Experimental: U-251 MG Glioblastoma Cell Line was grown in Dulbecco's Modified Eagles Medium (DMEM) containing 10% heat inactivated fetal bovine serum (FBS), streptomycin (5 μg/mL) and 5 U/mL penicillin 95 U/mL). All cell lines were maintained, and cell culture experiments were carried out in humidified incubators at 37° C. and 5% CO2 supplementation.
One day prior to DNA-PROTACs transfection, cells were propagated into 6 cm cell culture dishes containing appropriate complete growth medium. Prior to transfection, complete medium was replaced with transfection medium (5% FBS, no Penstrep). DNA-PROTACs transfection was performed using lipofectamine 3000 reagent according to the protocols provided by the manufacture. All transfections were carried out in 6-cm dishes with 3 mL of media and concentrations of DNA-PROTACs were calculated according to this volume (3 mL). Briefly, for 50 nM concentration, 5 μL from a 30 µM DNA-PROTACs stock and 12 μL p3000 reagent was added to a tube containing 125 μL of OPTIM-MEM and 8 μL of Lipofectamine 3000 reagent was added to a separate tube containing 125 μL of OPTIM-MEM. Two tubes were incubated for 5 minutes at room temperature and DNA-PROTACs containing OPTI-MEM was then slowly added to the second tube with lipo3000. The solution in the tube was mixed well by pipetting up and down several times. After incubating for 15-20 minutes at room temperature, 250 μL of DNA-PROTACs-lipofectamine complex was added drop wise onto cells containing the transfection medium. Transfection medium was mixed well before transferring the plate into the incubator. After appropriate time, cells were either harvested or replaced with fresh medium and incubated for desired time point prior to harvesting. For proteasome inhibition assay, 5 μM of MG-132 was incubated with cells for 2 h prior to transfection of DNA-PROTACs. Then, cells were incubated for another 12 h before lysing cells. Cell lysates were prepared by incubating cells in RIPA lysis buffer (25 mM Tris pH 7.6, 150 mM NaCl, 1% NP40, 1% deoxycholate, 0.1% SDS, 1× protease inhibitor cocktail from Roche and 1 mM of PMSF) on ice for 30 minutes and cell lysate was clarified by centrifugation at high speed (15 000 rpm) for 15 minutes. Clear supernatant was collected for further experiments.
Protein concentration in all the cell lysates were measured by BCA protein assay kit and equal amounts from each lysate were mixed with 4×loading dye and boiled for 5 minutes followed by 2 minutes centrifugation prior to loading into SDS-PAGE gel. Next proteins on the SDS-PAGE gel were transferred to a Nitrocellulose membrane by western blotting and the membrane was blocked with 5% milk in TBST (0.05% Tween 20) for 1 h. Primary antibodies (all Abcam antibodies were diluted 1:5000) were prepared in TBST with 2.5% milk and membranes were incubated overnight at 4° C. On the following day, membrane was washes for 15 minutes (Incubate for three times, 5 minutes each) and appropriate secondary antibodies (1:5000) were prepared in TBST and incubated with the membrane for 1 h at room temperature (RT). Membrane was washed for 15 minutes with TBST (incubate for three times, […]) prior to imaging.
The degradation efficiency of various DNA-PROTACs was evaluated through their transfection into U251 cells, conducted simultaneously to ensure uniform experimental conditions. A double-stranded DNA sequence without any ligand was utilized as a negative control, providing a baseline for comparison. Following a 14-hour treatment period, a duration selected based on preliminary time-course studies, the cells were harvested using trypsin digestion. The lysates obtained were then subjected to SDS-PAGE, followed by Western blot analysis to assess protein degradation. […] This finding highlights the efficacy of DNA-PROTAC V02 in targeting and reducing CDK6 protein levels. In comparison, DNA-PROTAC Versions 03 and 04 also facilitated protein degradation, albeit with varying degrees of efficiency. […]

CDK4 = target: T2, CDK4 (Homo sapiens, UniProt P11802); assay: Western blot of CDK4 degradation in U251 cells transfected with DNA-PROTACs
T2 construct: Dose- and Time-dependent Degradation of CDK6 and CDK4 in U251 Cells; endogenous in cells; host or cells: U-251 MG (U251) glioblastoma cells
Experimental: One day prior to DNA-PROTACs transfection, cells were propagated into 6 cm cell culture dishes containing appropriate complete growth medium. Prior to transfection, complete medium was replaced with transfection medium (5% FBS, no Penstrep). DNA-PROTACs transfection was performed using lipofectamine 3000 reagent according to the protocols provided by the manufacture. All transfections were carried out in 6-cm dishes with 3 mL of media and concentrations of DNA-PROTACs were calculated according to this volume (3 mL). Briefly, for 50 nM concentration, 5 μL from a 30 µM DNA-PROTACs stock and 12 μL p3000 reagent was added to a tube containing 125 μL of OPTIM-MEM and 8 μL of Lipofectamine 3000 reagent was added to a separate tube containing 125 μL of OPTIM-MEM. […]

CDK6 [2] = target: T1, CDK6; assay: Immunofluorescence staining / confocal analysis of CDK6 in U251 cells; conditions: 20 nM and 100 nM, compared to controls dsDNA, dsDNA-CDK6-i, dsDNA-E3-i
Experimental: U-251 MG cells were seeded into 10 mm confocal dishes (Ibidi) and incubated overnight. Subsequently, cells were quickly washed thrice with ice-cold PBS and then fixed with 4% paraformaldehyde for 20 min. After fixation, cells were washed with PBS and permeabilized with 0.1% Triton X-100 at room temperature for 10 min. The samples were then incubated in a blocking solution for 1 h at room temperature, followed by incubation with primary antibody overnight at 4° C. The primary antibody used was mouse CDK6 antibody (Abacm, 1:100). After washing thrice with PBST (PBS with 0.1% Tween 20), the samples were incubated with the secondary antibody in the dark for 1.5 h at room temperature. Cells were washed 3 times in PBST for 5 minutes each then incubated in the appropriate secondary antibodies supplemented CoraLite488-conjugated Goat Anti-Rabbit IgG(H+L) (Proteintech, 1:100) for 3 hrs. The nucleus was counterstained with DAPI (Hoechst 3342, 1 ug/mL) for 20 mins followed by 3 times wash in PBST. Finally, the slides were Imaging by Nikon X confocal.

CDK6 mRNA = assay: RT-PCR of CDK6 mRNA expression in U251 cells; conditions: 100 nM, 6 hours
Experimental: (§1) Subsequent RNA isolation and RT-PCR detection enabled a quantitative assessment of CDK6 and CDK4 mRNA expression levels. […] To further corroborate the mechanistic intricacies of DNA-PROTAC-V02, we probed its interaction with the proteasome pathway. […] Following an 8-hour treatment period, cells were collected, and Western blot analysis was conducted.

CDK4 mRNA = assay: RT-PCR of CDK4 mRNA expression in U251 cells; conditions: 100 nM, 6 hours
Experimental: as §1

CDK6 [3] = target: T1, CDK6; assay: Proteasome inhibition (MG132) assay of CDK6 degradation in U251 cells; conditions: 8-hour treatment
Experimental: One day prior to DNA-PROTACs transfection, cells were propagated into 6 cm cell culture dishes containing appropriate complete growth medium. Prior to transfection, complete medium was replaced with transfection medium (5% FBS, no Penstrep). DNA-PROTACs transfection was performed using lipofectamine 3000 reagent according to the protocols provided by the manufacture. All transfections were carried out in 6-cm dishes with 3 mL of media and concentrations of DNA-PROTACs were calculated according to this volume (3 mL). Briefly, for 50 nM concentration, 5 μL from a 30 µM DNA-PROTACs stock and 12 μL p3000 reagent was added to a tube containing 125 μL of OPTIM-MEM and 8 μL of Lipofectamine 3000 reagent was added to a separate tube containing 125 μL of OPTIM-MEM. Two tubes were incubated for 5 minutes at room temperature and DNA-PROTACs containing OPTI-MEM was then slowly added to the second tube with lipo3000. The solution in the tube was mixed well by pipetting up and down several times. […]
Protein concentration in all the cell lysates were measured by BCA protein assay kit and equal amounts from each lysate were mixed with 4×loading dye and boiled for 5 minutes followed by 2 minutes centrifugation prior to loading into SDS-PAGE gel. […]
Subsequent RNA isolation and RT-PCR detection enabled a quantitative assessment of CDK6 and CDK4 mRNA expression levels. […]

T1 sequence (Q00534 whole entry): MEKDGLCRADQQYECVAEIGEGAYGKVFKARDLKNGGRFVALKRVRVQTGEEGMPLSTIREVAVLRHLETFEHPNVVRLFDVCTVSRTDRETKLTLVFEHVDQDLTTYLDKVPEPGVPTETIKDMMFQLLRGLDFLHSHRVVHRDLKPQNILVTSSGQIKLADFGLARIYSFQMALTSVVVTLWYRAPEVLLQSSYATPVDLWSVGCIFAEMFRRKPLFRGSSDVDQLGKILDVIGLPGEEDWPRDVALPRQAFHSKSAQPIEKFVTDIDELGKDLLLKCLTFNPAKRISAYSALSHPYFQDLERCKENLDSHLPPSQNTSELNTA
T2 sequence (P11802 whole entry): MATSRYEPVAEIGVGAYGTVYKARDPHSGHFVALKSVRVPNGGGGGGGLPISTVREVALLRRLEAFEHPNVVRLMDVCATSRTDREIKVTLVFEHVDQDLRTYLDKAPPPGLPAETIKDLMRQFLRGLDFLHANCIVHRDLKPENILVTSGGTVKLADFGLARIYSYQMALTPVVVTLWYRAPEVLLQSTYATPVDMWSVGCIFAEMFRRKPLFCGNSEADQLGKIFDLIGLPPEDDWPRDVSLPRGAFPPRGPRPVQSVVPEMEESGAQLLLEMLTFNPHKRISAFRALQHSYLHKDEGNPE

DNA-E3 ligand: control: dsDNA with E3 ligand only (chain 1 CTCCATCTATTCTACGCCA; chain 2 TTCTACGCCA; chain 1: DNA, linkages s2 o13 s3 (s phosphorothioate, o phosphodiester), methylation of C not given here; chain 2: DNA, linkages o6 s3 (s phosphorothioate, o phosphodiester), methylation of C not given here; further chemistry not fully specified) [reference compound]
CDK6 protein degradation (target selectivity, controls) (CDK6 [1]): did not induce notable protein degradation
CDK4 protein degradation (target selectivity, controls) (CDK4): did not induce notable protein degradation

DNA-PROTAC-V02: DNA duplex of E3-i (pomalidomide) strand SEQ ID NO 3 and POI-i (palbociclib) strand SEQ ID NO 4 (chain 1 ACTCCATCTANTTCTACGCCA; chain 2 TGGCGTAGAANTAGATGGAGT; pomalidomide and palbociclib conjugated; modified_base 1 OTHER; Nucleotide with phosphorothioate linkage; modified_base 2 OTHER; modified_base 3 OTHER; misc_difference 11 E3 ligase attached to 3-Dimethoxytrityloxy-2-(3-(fluorenylmethoxycarbonylamino)propanamido)propyl-1-O-(2-cyanoethyl)-(N,N-diisopropyl)-phosphoramidite modified adenosine, cytidine, thymi; m)
CDK6 degradation (CDK6 [1]; 50 nM): over 80%
time for which CDK6 degradation was sustained (CDK6 [1]; 50 nM, time course): up to 48 hours
CDK6 protein degradation (Western blot) (CDK6 [1]; 14-hour treatment, 50 nM and 100 nM, vs ligand-free dsDNA control): most pronounced degradation of CDK6
concentration at which significant CDK6 degradation begins (CDK6 [1]; 14 hours, angular series): 20 nM
concentration at which dose-dependent degradation of CDK6 commences (CDK6 [1]; dose series): 10 nM
intracellular green fluorescence (CDK6 immunofluorescence) (CDK6 [2]): weakened intracellular green fluorescence
CDK6 mRNA levels (RT-PCR) (CDK6 mRNA): does not elicit a decrease in mRNA levels
CDK4 mRNA levels (RT-PCR) (CDK4 mRNA): does not elicit a decrease in mRNA levels
CDK6 protein (Western blot) without MG132 treatment (CDK6 [3]; 50 nM, no MG132): reduction in CDK6 protein
CDK6 protein (Western blot) with MG132 pre-treatment (CDK6 [3]; MG132 pre-treatment 1 hour, then 50 nM): rescue of CDK6 proteins
